Assay results as given in US20020077491A1, “Methods for forming combinatorial libraries combining amide bond formation with epoxide opening” (priority 2000, published 2002).
Values joined by “and” are separate entries in the source; they are usually repeats but may differ in a detail not shown here. Identical values can stand only once.

What was measured:
E. coli BL21(DE3) = test: Determination of antibacterial activity (inhibition of bacterial growth, absorbance at 600 nm); assay type: cell-based; settings: Escherichia coli, 24 hours at 37° C.
Description: Protocols for the measurement of IC50 for the evaluation of antibacterial activity followed standard methods [Antibiotics in Laboratory Medicine, V. Lorian, Ed. Fourth edition, 1996. Williams and Wilkins; Baltimore, Md.]. Briefly, purified (S)-29, antibiotic control, or vehicle (DMSO) was subjected to serial dilution into Luria-Bertani growth medium in a manner that placed 0.1 mL aliquots of medium-plus-vehicle or medium-plus-antibiotic into each well of a sterile polystyrene 96-well plate. To aid compound dissolution, medium-analyte mixtures were warmed to 37° C. for eight hours with agitation. Bacterial cells, [E. coli: hsdS gal (λcIts857 ind 1 Sam7 nin5 lacUV5-T7 gene 1); BL21(DE3)] were grown in to mid-log phase at 37° C. The culture was then diluted 1:10^5 into prewarmed growth medium. Aliquots of diluted bacterial culture (0.1 mL) were then combined with the pre-aliquotted medium-analyte mixtures to yield 0.2 mL inoculated cultures containing no more than 2.5% DMSO. The plated inoculate series were then grown for twenty-four hours at 37° C. with orbital shaking. Bacterial cell growth was quantitated by measuring absorbance at 600 nm. IC50 for the inhibition of bacterial growth was defined as the concentration of drug at which cell growth was half maximal at twenty-four hours.

[1] = target: T1, E. coli dihydrofolate reductase (DHFRec) (Escherichia coli, UniProt P0ABQ4); test: ALIS affinity selection-mass spectrometry with E. coli DHFR; assay type: binding
T1 construct: made in house
Source text: (§1) Utilizing the ALIS techniques described above, the affinity of ligands for DHFRec was compared to the affinity of the same ligands for the bovine (B. taurus) DHFR enzyme.

[2] = target: T2, bovine (B. taurus) DHFR enzyme (Bos taurus, UniProt P00376); test: ALIS affinity selection with bovine DHFR; assay type: binding; settings: FIG. 9
T2 sequence (P00376 1-187): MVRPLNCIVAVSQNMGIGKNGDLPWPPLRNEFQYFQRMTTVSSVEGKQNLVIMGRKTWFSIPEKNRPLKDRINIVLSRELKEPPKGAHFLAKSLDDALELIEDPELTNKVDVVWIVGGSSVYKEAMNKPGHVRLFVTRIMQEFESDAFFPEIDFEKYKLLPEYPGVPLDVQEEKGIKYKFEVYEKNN
Source text: as §1

Row | Compound | IC50 (E. coli BL21(DE3)) | affinity for DHFRec (ALIS) ([1]; E. coli enzyme, FIG. 9) | specificity for E. coli DHFR over bovine DHFR ([1]; pathogen vs. host DHFR, FIG. 9) | affinity for bovine (B. taurus) DHFR (ALIS) [2] | ligand identified by affinity selection LC-MS-MS ([1]; sublibrary from Core 6 with building blocks 15 and 21)
1 | COc1ccc([C@@H](C)NC[C@H](O)COc2cc(C(=O)N3CCN(c4cccc(Cl)c4)CC3)on2)cc1 [(S)-29] | 56 µM and 29 µg/mL | selectively binds to the E. coli enzyme | exhibits specificity for E. coli DHFR over bovine (B. taurus) DHFR | no detectable affinity | –
2 | COc1ccc([C@@H](C)NCC(O)COc2cc(C(=O)N3CCN(c4cccc(Cl)c4)CC3)on2)cc1 (some centres unmarked) [Core 29] | – | – | – | – | matched that assigned to regioisomer 29
